Measurements: patent US20150250167A1, “COMPOSITION FOR NOXIOUS ORGANISMS-CONTROLLING AGENT AND METHOD FOR USING THE SAME” (priority 2001, published 2015)

What was measured:
Rice Blast = settings: in vivo
[1] = test system: Rice Leafroller (Cnaphalocrosis medinalis); assay: Control of rice leafroller on paddyfield rice by nursery box application, number of injured leaves; assay type: in vivo; settings: 0.5 g ai/Box, single agent
Experimental: (§1) Test for the Control of Small Brown Planthopper (Laodelphax striatellus) and Rice Leafroller (Cnaphalocrosis medinalis) on Paddyfield Rice Plant by Nursery Box Application
(§2) Fifty grams of a granular preparation was applied to rice plant (variety: Nihombare) cultured in a nursery box, after which the rice plant was transplanted to the main paddy field (in the middle of May). The controlling effect against small brown planthopper was evaluated by investigating the number of parasitic insects on 30 hills per each plot, 40 days and 60 days after the transplantation. The controlling effect against rice leafroller was evaluated by investigating the number of injured leaves on 100 hills per each plot, 50 days after the transplantation.

Aphid = assay: Control of aphid on cabbage by soil treatment, number of parasitic insects; assay type: in vivo; settings: 5 mg ai/hill, 21 days after transplanting
Experimental: (§3) Test for the Control of Diamondback Moth (Plutella xyloxtella) and Aphid on Cabbage by Soil Treatment
A granular preparation was mixed into bed soil, and the mixture was filled into a cell seedling box and sown with seeds of cabbage (variety: YR Seitoku). Otherwise, cell seedling planted cabbage was treated with the granular agent either by a treatment in the foliage leaf extraction period, or by a pre-transplanting treatment, or by a pricking-in hole treatment, or by a plant foot treatment after the planting. […]

Cutworm = assay: Test for the effect against cutworm on beet, drench, number of injured hills per 100 hills; assay type: in vivo; settings: 15 g ai/10a
Experimental: Test for the Effect Against Cutworm on Beet
Beet seedlings (variety: Monoace S) planted in a paper pot was treated with 3 L/m^2 of a solution of an agent diluted to a predetermined concentration, by the method of drench. Just after the drench, the plant was set. Predetermined days after the setting, the number of injured hills per 100 hills was counted.

[2] = test system: Citrus Yellow Thrips (Frankliniella occidentalis); assay: Control of citrus yellow thrips on egg plant by combined use with natural enemy pesticide, number of thrips; assay type: in vivo; settings: 100 ppm, spray
[3] = test system: Small Brown Planthopper (Laodelphax striatellus); assay: Control of small brown planthopper on paddyfield rice by nursery box application, number of parasitic insects; assay type: in vivo; settings: 0.5 g ai/Box, single agent
Experimental: as §1, §2

[4] = test system: Green Peach Aphid (Myzus persicae); assay: Insecticidal test on green peach aphid, spraying of Chinese cabbage, control value; assay type: in vivo; settings: 100 ppm, single agent, 6 days after spraying
[5] = test system: Resistant Strain of Two-Spotted Spider Mite; settings: 100 ppm, single agent, 2 days after spraying
[6] = test system: Rice Water Weevil (Lissorhoptrus oryzophilus); assay: Control of rice water weevil on paddyfield rice by nursery box application, extent of injury; assay type: in vivo; settings: 0.5 g ai/Box, single agent
[7] = test system: Smaller Tea Tortrix (Adoxophyes orana fosciota); assay: Insecticidal test on smaller tea tortrix, tea leaf dipping; assay type: in vivo; settings: single agent 0.3 ppm, 4th instar larvae, 25° C.
Experimental: Insecticidal Test on Smaller Tea Tortrix (Adoxophyes orana fosciota)
Tea leaves were dipped in a solution of a chemical diluted to a prescribed concentration for 30 seconds. […] Four days and seven days after the treatment, the number of alive insects were counted, from which percentage of death was calculated.

[8] = test system: Brown Rice Planthopper (Nilaparvata lugens); assay: Insecticidal test on brown rice planthopper, rice seedling dipping; assay type: in vivo; settings: 100 ppm, single agent; for Death rate (%) After 1 days: after 1 day
Description: Insecticidal Test on Brown Rice Planthopper (Nilaparvata lugens)
Rice seedlings (variety: Nihombare) were dipped in a solution of an agent diluted to a predetermined concentration for 30 seconds. After air-dryness, each seedling was introduced into a glass-made test tube having a diameter of 1.8 cm and a height of 20 cm, and inoculated with ten 3rd inster nimphs of brown rice planthopper. Then, the test tube was stoppered with cotton. One day after and four days after the treatment, the number of alive insects was counted, based on which the insect death rate was calculated.

[9] = test system: Southern Root-Knot Nematode (Meloidogyne incognita); assay: Test for the effect on southern root-knot nematode, soil blending with granular preparation; assay type: in vivo; settings: 300 g ai/10a, single agent, 60 days after treatment
Description: Test for the Effect on Southern Root-Knot Nematode (Meloidogyne incognita)
Two killograms of a soil polluted with southern root-knot nematode was blended with a predetermined dose of a granular preparation. The mixture was filled into a 1/5,000 are Wagner pot. After sowing melon seeds and carrying out the treatment of the present invention, the pot was left to stand in a greenhouse. Sixty days after the treatment, 25 g of the soil was sampled out, the nematode was separated therefrom according to the method of Berman, and the numbers of nematodes were counted after 48 hours.
In the tables, “ai” means active ingredient.

[10] = test system: Diamondback Moth (Plutella xyloxtella); assay: Control of diamondback moth on cabbage by soil treatment, number of parasitic insects; assay type: in vivo; settings: 5 mg ai/hill, 21 days after transplanting
Experimental: as §3
A granular preparation was mixed into bed soil, and the mixture was filled into a cell seedling box and sown with seeds of cabbage (variety: YR Seitoku). Otherwise, cell seedling planted cabbage was treated with the granular agent either by a treatment in the foliage leaf extraction period, or by a pre-transplanting treatment, or by a pricking-in hole treatment, or by a plant foot treatment after the planting. Twenty one days after the transplanting (in the middle of June), the number of parasitic insects was counted on 30 hills in the case of diamondback moth and on 10 hills in the case of aphid.

[11] = true leaf extraction season treatment

Structure (SMILES) | Areal rate of disease spot (%) After 60 days (Rice Blast) [%] | Percentage of injured leaves (%) After 50 days [1] [%] | Number of parasitic insects per 30 hills, Aphid (Aphid; plant foot treatment) | Number of parasitic insects per 30 hills, Aphid (Aphid; pre-transplanting treatment) | Number of parasitic insects per 30 hills, Aphid (Aphid; pricking-in hole treatment) | Number of parasitic insects per 30 hills, Aphid (Aphid; soil incorporation) | Number of parasitic insects per 30 hills, Aphid (Aphid; [11]) | Number of injured hills per 100 hills, After 60 days (Cutworm) | Number of injured hills per 100 hills, After 90 days (Cutworm) | Number of injured hills per 100 hills, After 120 days (Cutworm) | Number of parasitic insects per 20 leaves, After 60 days [2] | Number of parasitic insects per 20 leaves, After 90 days [2] | Number of parasitic insects per 20 leaves, After 120 days [2] | Number of parasitic planthoppers per 30 hills After 40 days [3] | Number of parasitic planthoppers per 30 hills After 60 days [3] | Control degree (%) [4] [%] | Death rate (%) [5] [%] | Extent of injury After 21 days [6] | Death rate (%) After 4 days [7] [%] | Death rate (%) After 7 days [7] [%] | further results
Cc1cc(C(F)(C(F)(F)F)C(F)(F)F)ccc1NC(=O)c1cccc(I)c1C(=O)NC(C)C [Compound 43] | 8.9 | 0.17 | 467 | 482 | 447 | 501 | 448 | 0 | 6 | 19 | 23 | 31 | 57 | 309 | 334 | 0 | 0 | 44.3 | 0 | 35 | Death rate (%) After 1 days [8]: 0%; Death rate (%) After 5 days [8]: 0%; Number of nematodes per 25 g of soil sample [9]: 36; Number of parasitic insects per 30 hills, Diamondback moth ([10]; plant foot treatment): 2; Number of parasitic insects per 30 hills, Diamondback moth ([10]; pre-transplanting treatment): 3; Number of parasitic insects per 30 hills, Diamondback moth ([10]; pricking-in hole treatment): 1; Number of parasitic insects per 30 hills, Diamondback moth ([10]; soil incorporation): 2; Number of parasitic insects per 30 hills, Diamondback moth [10, 11]: 2
Cc1cc(OC(F)(F)F)ccc1NC(=O)c1cccc(I)c1C(=O)NC(C)C [Compound 44] | 9.1 | 0.24 | 492 | 498 | 478 | 449 | 502 | 0 | 7 | 20 | 25 | 33 | 53 | 323 | 358 | 0 | 0 | 45.9 | 0 | 20 | Death rate (%) After 1 days [8]: 0%; Death rate (%) After 5 days [8]: 0%; Number of nematodes per 25 g of soil sample [9]: 29; Number of parasitic insects per 30 hills, Diamondback moth ([10]; plant foot treatment): 2; Number of parasitic insects per 30 hills, Diamondback moth ([10]; pre-transplanting treatment): 3; Number of parasitic insects per 30 hills, Diamondback moth ([10]; pricking-in hole treatment): 3; Number of parasitic insects per 30 hills, Diamondback moth ([10]; soil incorporation): 3; Number of parasitic insects per 30 hills, Diamondback moth [10, 11]: 2
